Tested on: LS-174T cells
Assay: DBZ-induced goblet cell differentiation of LS-174T cells (RT-PCR)
Format: cell-based
Settings: 1 μM DBZ
Experimental: . Notch inhibition by dibenzazepine (DBZ) allows colorectal stem cells to differentiate into goblet cells, and the DBZ-induced goblet cell differentiation of LS-174T cells is a well-established intestinal differentiation model. […].
Total RNA was extracted using TRIzol reagent (Takara Bio Inc., Japan) following the manufacturer’s instructions. Total RNA (1 μg) was reverse-transcribed into cDNA using the PrimeScript RT Kit (Takara Bio Inc., Japan). Quantitative real-time reverse transcription-PCR was performed using a SYBR Green kit (Vazyme, China). β-Actin mRNA was employed as a reference gene for expression normalization. The qPCR primer sequences are listed in Supplementary Table 8. […]
Supplementary Fig. 17. Effect of […] on apoptosis and cell differentiation. a,b) Flow cytometry apoptosis analysis of SW480 (a) and HIEC-6 (b) cells treated with 25 μM MAIT -516 for 48 h, the gating strategy is shown for control sample . c) RT-PCR analysis of genes involved in intestinal cell differentiation ( MUC2, ATOH1, HES1, SPDEF and TFF3) in LS-174T cells. LS-174T cells were treated […]
mean ± SD (n = 3 independent experiments). p values were calculated by one-way ANOVA with Tukey’s multiple comparisons test.
Source data are provided as a Source Data file.
(1 picture or pasted object on this page, not shown here)

C[C@H](NC(=O)Cc1cc(F)cc(F)c1)C(=O)N[C@@H]1C(=O)N(C)c2ccccc2-c2ccccc21 [DBZ, dibenzazepine]
mRNA level of NOTCH target gene HES1: significantly suppressed
mRNA levels of goblet cell markers (MUC2, TFF3, ATOH1, SPDEF): increasing the mRNA levels

— publication PMC9402538, “Rational design of a sensitivity-enhanced tracer for discovering efficient APC–Asef inhibitors” (Nature Communications, 2022)
